Results taken from ChEMBL document CHEMBL1144970, “Protective effects of steroid saponins from Paris polyphylla var. yunnanensis on ethanol- or indomethacin-induced gastric mucosal lesions in rats: structural requirement for activity and mode of action” (Bioorg Med Chem Lett, 2003).

Tests used:
[1] = tested on: Rattus norvegicus; assay: Percent inhibition of gastric lesions induced by ethanol was measured, after administration of 10 mg/kg po in rats; format: functional; conditions: Stomach
[2] = tested on: Rattus norvegicus; assay: Reduction in length (control value = 62.8+/-12.4) of gastric lesions induced by endomethacin was measured, after administration of 10 mg/kg po in rats; format: functional, Stomach
[3] = tested on: Rattus norvegicus; assay: Reduction in length (control value = 138+/-12.1) of gastric lesions induced by ethanol was measured, after administration of 10 mg/kg po in rats; format: functional, Stomach
[4] = tested on: Rattus norvegicus; assay: Percent inhibition of gastric lesions induced by endomethacin was measured, after administration of 10 mg/kg po in rats; format: functional; conditions: Stomach
[5] = tested on: Rattus norvegicus; assay: Percent inhibition of gastric lesions induced by ethanol was measured, after administration of 5 mg/kg po in rats; format: functional; conditions: Stomach
[6] = tested on: Rattus norvegicus; assay: Percent inhibition of gastric lesions (length = 61.5+/-4.4) induced by ethanol was measured, after administration of 10 mg/kg po in NEM-pretreated rats; format: functional; conditions: Stomach
[7] = tested on: Rattus norvegicus; assay: Percent inhibition of gastric lesions (length = 35.7+/-2.3) induced by ethanol was measured, after administration of 5 mg/kg po in rats; format: functional; conditions: Stomach
[8] = tested on: Rattus norvegicus; assay: Reduction in length (control value = 188.7+/-10.5) of gastric lesions induced by ethanol was measured, after administration of 5 mg/kg po in L-NAME-pretreated rats; format: functional, Stomach
[9] = tested on: Rattus norvegicus; assay: Volume of the gastric juice (Control value = 4.9+/-0.3) of stomach content of pylorus ligated rats was measured (5 mg/kg po of the Compound was administered 1 hr before the pylorus ligation); format: functional
[10] = tested on: Rattus norvegicus; assay: Percent inhibition of gastric lesions (length = 92.3+/-9) induced by ethanol was measured, after administration of 5 mg/kg po in NEM-pretreated rats; format: functional; conditions: Stomach
[11] = tested on: Rattus norvegicus; assay: Reduction in length (control value = 126.1+/-5.7) of gastric lesions induced by ethanol was measured, after administration of 10 mg/kg po in rats; format: functional, Stomach
[12] = tested on: Rattus norvegicus; assay: Reduction in length (control value = 126.1+/-5.7) of gastric lesions induced by ethanol was measured, after administration of 2.5 mg/kg po in rats; format: functional, Stomach
[13] = tested on: Rattus norvegicus; assay: Percent inhibition of gastric lesions (length = 96.1+/-13.7) induced by ethanol was measured, after administration of 10 mg/kg po in endomethacin pretreated rats; format: functional; conditions: Stomach
[14] = tested on: Rattus norvegicus; assay: pH of the gastric juice (Control value = 1.44+/-0.01) of stomach content of pylorus ligated rats was measured ( 5 mg/kg po of the Compound was administered 1 hr before the pylorus ligation); format: ADME, organism-based; set-up: dose 5 mg/kg, route oral; conditions: in vivo
[15] = tested on: Rattus norvegicus; assay: Reduction in length (control value = 124.3+/-7.8) of gastric lesions induced by ethanol was measured, after administration of 10 mg/kg po in indomethacin-pretreated rats; format: functional, Stomach
[16] = tested on: Rattus norvegicus; assay: Percent inhibition of gastric lesions (length = 102.2+/-8.1) induced by ethanol was measured, after administration of 5 mg/kg po in endomethacin pretreated rats; format: functional; conditions: Stomach
[17] = tested on: Rattus norvegicus; assay: Reduction in length (control value = 169.6+/-1.9) of gastric lesions induced by ethanol was measured, after administration of 5 mg/kg po in NEM-pretreated rats; format: functional, Stomach
[18] = tested on: Rattus norvegicus; assay: Volume of the gastric juice (Control value = 4.9+/-0.3) of stomach content of pylorus ligated rats was measured (10 mg/kg po of the Compound was administered 1 hr before the pylorus ligation); format: functional
[19] = tested on: Rattus norvegicus; assay: Acid output from the stomach (control value = 119.7+/-11.7) in pylorus ligated rats (5 mg/kg po of the Compound was administered 1 hr before the pylorus ligation); format: functional
[20] = tested on: Rattus norvegicus; assay: Reduction in length (control value = 206.7+/-6.3) of gastric lesions induced by endomethacin was measured, after administration of 5 mg/kg po NEM-pretreated in rats; format: functional, Stomach
[21] = tested on: Rattus norvegicus; assay: Percent inhibition of gastric lesions induced by ethanol was measured, after administration of 2.5 mg/kg po in rats; format: functional; conditions: Stomach
[22] = tested on: Rattus norvegicus; assay: Percent inhibition of gastric lesions induced by endomethacin was measured, after administration of 2.5 mg/kg po in rats; format: functional; conditions: Stomach
[23] = tested on: Rattus norvegicus; assay: Reduction in length (control value = 124.3+/-7.8) of gastric lesions induced by ethanol was measured, after administration of 5 mg/kg po in indomethacin-pretreated rats; format: functional, Stomach
[24] = tested on: Rattus norvegicus; assay: Reduction in length (control value = 70.8+/-5.3) of gastric lesions induced by endomethacin was measured, after administration of 5 mg/kg po in rats; format: functional, Stomach
[25] = tested on: Rattus norvegicus; assay: pH of the gastric juice (Control value = 1.44+/-0.01) of stomach content of pylorus ligated rats was measured (10 mg/kg po of the Compound was administered 1 hr before the pylorus ligation); format: ADME, organism-based; conditions: in vivo
[26] = tested on: Rattus norvegicus; assay: Reduction in length (control value = 70.8+/-5.3) of gastric lesions induced by endomethacin was measured, after administration of 10 mg/kg po in rats; format: functional, Stomach
[27] = tested on: Rattus norvegicus; assay: Reduction in length (control value = 169.6+/-1.9) of gastric lesions induced by ethanol was measured, after administration of 10 mg/kg po in NEM-pretreated rats; format: functional, Stomach
[28] = tested on: Rattus norvegicus; assay: Percent inhibition of gastric lesions (length = 60.8+/-11.6) induced by ethanol was measured, after administration of 5 mg/kg po in L-NAME-pretreated rats; format: functional; conditions: Stomach
[29] = tested on: Rattus norvegicus; assay: Reduction in length (control value = 126.1+/-5.7) of gastric lesions induced by ethanol was measured, after administration of 5 mg/kg po in rats; format: functional, Stomach
[30] = tested on: Rattus norvegicus; assay: Acid output from the stomach (control value = 119.7+/-11.7) in pylorus ligated rats (10 mg/kg po of the Compound was administered 1 hr before the pylorus ligation); format: functional
[31] = tested on: Rattus norvegicus; assay: Percent inhibition of gastric lesions (length = 15.3+/-2.9) induced by ethanol was measured, after administration of 10 mg/kg po in rats; format: functional; conditions: Stomach
[32] = tested on: Rattus norvegicus; assay: Percent inhibition of gastric lesions (length = 31.4+/-3.8) induced by ethanol was measured, after administration of 10 mg/kg po in L-NAME-pretreated rats; format: functional; conditions: Stomach
[33] = tested on: Rattus norvegicus; assay: Percent inhibition of gastric lesions induced by endomethacin was measured, after administration of 5 mg/kg po in rats; format: functional; conditions: Stomach
[34] = tested on: Rattus norvegicus; assay: Reduction in length (control value = 70.8+/-5.3) of gastric lesions induced by endomethacin was measured, after administration of 2.5 mg/kg po in rats; format: functional, Stomach
[35] = tested on: Rattus norvegicus; assay: Reduction in length (control value = 54.6+/-16.5) of gastric lesions induced by endomethacin was measured, after administration of 10 mg/kg po in rats; format: functional, Stomach
[36] = tested on: Rattus norvegicus; assay: Reduction in length (control value = 107+/-14.5) of gastric lesions induced by ethanol was measured, after administration of 2.5 mg/kg po in rats; format: functional, Stomach
[37] = tested on: Rattus norvegicus; assay: Reduction in length ((control value = 126+/-9.1) of gastric lesions induced by ethanol was measured, after administration of 2.5 mg/kg po in rats; format: functional, Stomach
[38] = tested on: Rattus norvegicus; assay: Reduction in length (control value = 126+/-9.1) of gastric lesions induced by ethanol was measured, after administration of 5 mg/kg po in rats; format: functional, Stomach
[39] = tested on: Rattus norvegicus; assay: Reduction in length (control value = 88.9+/-5.5) of gastric lesions induced by endomethacin was measured, after administration of 5 mg/kg po in rats; format: functional, Stomach
[40] = tested on: Rattus norvegicus; assay: Reduction in length ((control value = 126+/-9.1)of gastric lesions induced by ethanol was measured, after administration of 2.5 mg/kg po in rats; format: functional, Stomach

SMILES: CC1CC[C@@]2(OC1)OC1CC3C4CC=C5C[C@@H](O)CC[C@]5(C)C4CC[C@]3(C)[C@@]1(O)[C@@H]2C (some centres not stated)
- inhibition in vivo at 10 mg/kg [1]: 2.5%
- Length [2]: 67.1 mm
- Length [3]: 134 mm
- inhibition in vivo at 10 mg/kg [4]: 6.8%

SMILES: C[C@@H]1CC[C@@]2(OC1)OC1C[C@H]3[C@@H]4CC=C5C[C@@H](O[C@@H]6O[C@H](CO)[C@@H](O[C@@H]7O[C@@H](CO)[C@H](O)[C@H]7O)[C@H](O)[C@H]6O[C@@H]6O[C@@H](C)[C@H](O)[C@@H](O)[C@H]6O)CC[C@]5(C)[C@H]4CC[C@]3(C)C1[C@@H]2C (some centres not stated)
- inhibition in vivo at 5 mg/kg [5]: 63.1%
- inhibition in vivo at 10 mg/kg [6]: 63.7%
- inhibition in vivo at 5 mg/kg [7]: 69.3%
- Length [8]: 60.8 mm
- Volume [9]: 4.4 ml 4hr-1
- inhibition in vivo at 5 mg/kg [10]: 45.6%
- Length [11]: 11.4 mm
- Length [12]: 76.1 mm
- inhibition in vivo at 10 mg/kg [13]: 22.7%
- pH [14]: 1.47
- Length [15]: 96.1 mm
- inhibition in vivo at 10 mg/kg [1]: 91%
- inhibition in vivo at 5 mg/kg [16]: 17.8%
- Length [17]: 92.3 mm
- Volume [18]: 3.6 ml 4hr-1
- Acid output [19]: 100.5 u equiv hr-1
- Length [20]: 61.5 mm
- inhibition in vivo at 2.5 mg/kg [21]: 39.7%
- inhibition in vivo at 2.5 mg/kg [22]: 60.6%
- inhibition in vivo at 10 mg/kg [4]: 84.6%
- Length [23]: 102 mm
- Length [24]: 23.2 mm
- pH [25]: 1.48
- Length [26]: 10.9 mm
- Length [27]: 31.4 mm
- inhibition in vivo at 5 mg/kg [28]: 67.8%
- Length [29]: 46.5 mm
- Acid output [30]: 82.1 u equiv hr-1
- inhibition in vivo at 10 mg/kg [31]: 86.9%
- inhibition in vivo at 10 mg/kg [32]: 83.4%
- inhibition in vivo at 5 mg/kg [33]: 67.2%
- Length [34]: 27.9 mm

SMILES: C[C@@H]1CC[C@@]2(OC1)O[C@H]1C[C@H]3[C@@H]4CC=C5C[C@@H](O)CC[C@]5(C)[C@H]4CC[C@]3(C)[C@H]1[C@@H]2C [DISOGENIN]
- Length [35]: 49.9 mm
- inhibition in vivo at 10 mg/kg [1]: 28.1%
- inhibition in vivo at 10 mg/kg [4]: 8.6%
- Length [36]: 76.9 mm

SMILES: C[C@H](CCC1(O)OC2CC3C4CC=C5C[C@@H](O[C@@H]6O[C@H](CO)C(O[C@@H]7O[C@@H](CO)[C@H](O)[C@H]7O)[C@@H](O)[C@H]6O[C@@H]6O[C@@H](C)[C@H](O)[C@@H](O)[C@H]6O)CC[C@]5(C)C4CC[C@]3(C)C2[C@@H]1C)CO[C@@H]1O[C@H](CO)[C@@H](O)[C@H](O)[C@H]1O (some centres not stated) [PARISAPONIN I]
- inhibition in vivo at 5 mg/kg [5]: 15.6%
- Length [37]: 114 mm
- Length [38]: 106 mm
- inhibition in vivo at 2.5 mg/kg [21]: 9.2%
- Length [39]: 82.5 mm
- inhibition in vivo at 5 mg/kg [33]: 7.2%

SMILES: C[C@H](CCC1(O)OC2CC3C4CC=C5C[C@@H](O[C@@H]6O[C@H](CO)[C@@H](O)[C@H](O)[C@H]6O[C@@H]6O[C@@H](C)[C@H](O)[C@@H](O)[C@H]6O)CC[C@]5(C)C4CC[C@]3(C)C2[C@@H]1C)CO[C@@H]1O[C@H](CO)[C@@H](O)[C@H](O)[C@H]1O (some centres not stated) [TRIGOFOENOSIDE A]
- inhibition in vivo at 5 mg/kg [5]: 11.7%
- Length [40]: 93 mm
- Length [38]: 111 mm
- inhibition in vivo at 2.5 mg/kg [21]: 26.2%
- Length [39]: 74.7 mm
- inhibition in vivo at 5 mg/kg [33]: 16%
